From PubChem BioAssay (NCI)
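Exposure lasted 48 hours, with cells grown in 96-well plates and compounds tested at five concentrations. GI50: concentration for 50% inhibition of growth. TGI: total growth inhibition.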

What was measured:
Assay in all cases: DTP human tumour cell line panel, 48 h
OVCAR-8 ovarian = test system: OVCAR-8 ovarian
DU-145 prostate = test system: DU-145 prostate
BT-549 breast = test system: BT-549 breast
MALME-3M melanoma = test system: MALME-3M melanoma
HOP-92 NSCLC = test system: HOP-92 NSCLC
MCF7 breast = test system: MCF7 breast
KM12 colon = test system: KM12 colon

Row | Compound | TGI (OVCAR-8 ovarian) | TGI (DU-145 prostate) | TGI (BT-549 breast) | TGI (MALME-3M melanoma) | TGI (HOP-92 NSCLC) | TGI (MCF7 breast) | TGI (KM12 colon) | GI50 (OVCAR-8 ovarian) | GI50 (DU-145 prostate) | GI50 (MCF7 breast) | GI50 (BT-549 breast) | GI50 (MALME-3M melanoma) | GI50 (KM12 colon) | GI50 (HOP-92 NSCLC)
1 | CNc1ccc(C(=O)CC(O)CCC(C)C2OC(=O)CC(O)CC(=O)CC(O)CC(O)CC(O)CC(O)CC3(O)CC(O)C(C(=O)NCCN(C)C)C(CC(OC4OC(C)C(O)C(NC(=O)CN5CCN(C)CC5)C4O)/C=C/C=C/C=C/C=C\C=C/C=C/C=C/C2C)O3)cc1 (configuration not stated) | > 100 µM | > 100 µM | > 100 µM | 8.91 µM | > 100 µM |  |  |  |  |  |  |  |  | 
2 | CC(C)(C)NC(NC(C)(C)C)=C(/C=C(/Cl)[N+](=O)[O-])[N+](=O)[O-] | > 100 µM | > 100 µM |  | 24.4 µM | > 100 µM | > 100 µM | > 100 µM |  |  |  |  |  |  | 
3 | CC(C)CC1C(=O)NCCC(NC(=O)C(Cc2ccc(OC(C)(C)C)cc2)NC(=O)OC(C)(C)C)C(=O)NC(Cc2ccccc2)C(=O)NC(Cc2ccccc2)NC1=O (configuration not stated) | 20.6 µM | > 100 µM |  | 32 µM | 32.1 µM | 52.3 µM | > 100 µM |  |  |  |  |  |  | 
4 | CN(C(=O)C1=CCC2(CC1)OCCO2)c1ccccc1OS(=O)(=O)C(F)(F)F | > 100 µM | > 100 µM |  |  | > 100 µM | > 100 µM | > 100 µM |  |  |  |  |  |  | 
5 | COc1cccc2c1OC(c1ccc(Cl)cc1)C([N+](=O)[O-])=C2 (configuration not stated) | 10.2 µM | 13.2 µM | 3.38 µM | 5.32 µM |  |  | 4.84 µM |  |  |  |  |  |  | 
6 | COC(=O)CC(C#N)(OP1(=O)OC(c2ccccc2)C(C)N1C)c1ccccc1 (configuration not stated) | 67.1 µM | > 100 µM | > 100 µM | > 100 µM | 85.8 µM | > 100 µM | 48.8 µM |  |  |  |  |  |  | 
7 | CN=c1nc2sc3c(c2c(NC(=S)NC)s1)CCCC3 |  | > 100 µM | > 100 µM | > 100 µM | > 100 µM | > 100 µM | > 100 µM |  |  |  |  |  |  | 
8 | CC(C)C(=O)[C@@]1(C)SC[C@H]2CCN=C21 | > 100 µM | > 100 µM | > 100 µM | > 100 µM | 75 µM | > 100 µM | > 100 µM |  |  |  |  |  |  | 
9 | Nc1ccc2c(c1)N(C(=O)c1cc3cc(NC(=O)c4cc5ccccc5o4)ccc3[nH]1)CC2CCl (configuration not stated) | 1.45 µM | 2.08 µM | 1.9 µM | 0.289 µM | 1.47 µM | 2.38 µM | 2.37 µM |  |  |  |  |  |  | 
10 | CCCCc1c(N(C)C)c(OC(C)=O)c(-c2cn(C)c3ccccc23)oc1=O |  | > 100 µM | 72.2 µM | 62.3 µM |  | 39.6 µM | 37.5 µM |  |  |  |  |  |  | 
11 | CC1=CC(C)C/C=C/C2C3OC3(C)C(C)C3C(Cc4c[nH]c5ccccc45)NC(=O)C23C(=O)C=CC(=O)C1O (configuration not stated) | 54.3 µM | 27.6 µM | 10.3 µM | 4.19 µM | 3.13 µM | 27.1 µM | 30 µM |  |  |  |  |  |  | 
12 | Cc1cc(C)n2nc3nc(N)c(C#N)c(-c4ccccc4)c3c2n1 | > 100 µM | > 100 µM | > 100 µM | > 100 µM | > 100 µM | > 100 µM | > 100 µM |  |  |  |  |  |  | 
13 | CCCCN(CCCC)CC(O)c1cc(-c2ccc(C(F)(F)F)cc2)nc(-c2ccc(C(F)(F)F)cc2)c1 (configuration not stated) | > 100 µM | > 100 µM |  | > 100 µM | > 100 µM |  |  |  |  |  |  |  |  | 
14 | OC1(C(F)(F)F)OCCN=C1C(F)(F)F (configuration not stated) | > 100 µM | > 100 µM | > 100 µM | 76.4 µM | > 100 µM | > 100 µM | > 100 µM |  |  |  |  |  |  | 
15 | OC1[C@@H]2[C@@H](O)[C@H](O)[C@@H](O)N2C[C@@H]1O (some centres not stated) | > 100 µM | > 100 µM | > 100 µM | > 100 µM | > 100 µM | > 100 µM | > 100 µM |  |  |  |  |  |  | 
16 | COc1cc(C2SCC(=O)N2c2ccccn2)cc(OC)c1OC (configuration not stated) | > 100 µM | > 100 µM | > 100 µM |  | 89.2 µM | > 100 µM | > 100 µM |  |  |  |  |  |  | 
17 | CCOc1cc2c(OCc3ccccc3)cc3c4cc(OC)c(OC)cc4c[n+](C)c3c2cc1OC | 5.6 µM | 23.2 µM | 4.72 µM | 2.18 µM | 2.08 µM | 4.44 µM |  |  |  |  |  |  |  | 
18 | COC(=O)C1=C(C)NC2=C(C(=O)c3ccccc32)C1c1cn(-c2ccccc2)nc1-c1ccccc1 (configuration not stated) | > 100 µM | > 100 µM | > 100 µM | > 100 µM | > 100 µM | > 100 µM | > 100 µM |  |  |  |  |  |  | 
19 | CCCC(=O)n1[nH]c(=O)n(-c2ccc(Cl)cc2)c1=O | > 100 µM | > 100 µM | > 100 µM | > 100 µM |  | > 100 µM | > 100 µM |  |  |  |  |  |  | 
20 | COc1cc(/C=C2\C[C@H]3[C@@H]4CCc5cc(O)ccc5[C@H]4CC[C@]3(C)C2=O)cc(OC)c1OC | 30.1 µM | 17.5 µM | 42.6 µM | 13.4 µM |  | > 100 µM | 38.1 µM |  |  |  |  |  |  | 
21 | C=C1C(=O)C[C@H]2C(=C)C(=O)O[C@@H]2C2C1CC[C@@]2(C)O (some centres not stated) | > 100 µM | > 100 µM | 44 µM | 44.9 µM | > 100 µM | 36.1 µM | > 100 µM |  |  |  |  |  |  | 
22 | Cc1cc(C)nc(NC(=O)c2ccc(Br)s2)c1 | > 100 µM | > 100 µM | > 100 µM | > 100 µM | > 100 µM | > 100 µM | > 100 µM |  |  |  |  |  |  | 
23 | c1nc(OCC2CCCCC2)c2[nH]cnc2n1 | > 100 µM | > 100 µM | > 100 µM | > 100 µM | > 100 µM |  | > 100 µM |  |  |  |  |  |  | 
24 | CCOC(=O)c1c(NC(=O)c2cccs2)sc2c1CCCC2 | > 100 µM | > 100 µM | > 100 µM | > 74.5 µM | > 100 µM | > 100 µM | > 100 µM |  |  |  |  |  |  | 
25 | CCOC(=O)C1=C(C)N(Cc2ccc(Cl)cc2Cl)C2(O)C=CC(=O)C3C(=O)N(c4ccccc4)C(=O)C132 (configuration not stated) | 7.89 µM | 2.97 µM | 3.27 µM | 8.67 µM | 4.09 µM | 5.11 µM | 3.65 µM |  |  |  |  |  |  | 
26 | Nc1c2c(nc3cc(F)c(F)cc13)CCC2 | > 100 µM | > 100 µM | > 100 µM | > 100 µM | > 100 µM | > 100 µM | > 100 µM |  |  |  |  |  |  | 
27 | COc1ccc(N2C(=O)C(=O)N(c3ccccc3[N+](=O)[O-])C2=S)cc1 | 44.9 µM | > 100 µM |  | > 100 µM | 57.4 µM |  | 71.9 µM |  |  |  |  |  |  | 
28 | CN(C)CCCNC(=O)c1cc2[nH]c3c(cnc4ccc([N+](=O)[O-])cc43)c(=O)c2n1C | 43.2 µM | 25.1 µM | 43.2 µM | 40.4 µM | 32.1 µM | 28.9 µM | 25.2 µM | 20.2 µM | 12.6 µM | 15.5 µM | 20.2 µM | 21.3 µM | 12 µM | 13.5 µM
